Results published in US20240261398A1 (priority 2018, published 2024).
Where two headings read alike, the source gives them in different places.

Tests used:
[1] = test system: influenza virus; assay type: in vivo, mice
[2] = test system: A/California/07/2009 virus (H1N1; CA07); set-up: species or system BALB/c mice; conditions: mouse, in vivo
[3] = test system: A/California/07/2009 virus (H1N1; CA07); set-up: species or system BALB/c mice; conditions: mouse, in vivo; remark: listed apart in the source
[4] = test system: Ebola GP protein; assay type: in vivo, BALB/c mice
[5] = nasal immunization with vaccine + compound, 100 μg/dose (saponin 10 μg/dose), Day 0, 14, 28

O.O=P([O-])([O-])OCC(O)CO.[Ca+2] (stereo not shown)
Antibody titers (IgG) ([1]; mouse, in vivo): 261.25 | Antibody titers in secondary screening, Vaccine + compound [2]: 4800 | Relative ratio of antibody titer to alum (compound/alum), secondary screening [2]: 3.33 | Antibody titers in primary screening, Vaccine + compound [3]: 1920.00 | Relative ratio of antibody titer to alum (compound/alum), primary screening [3]: 1.71

CC(/C=C/C=C(C)/C=C/C(=O)O)=C\C=C\C=C(C)\C=C\C=C(C)\C=C\C(=O)O (stereo in doubt) [Norbixin]
Antibody titers (IgG) ([1]; mouse, in vivo): 340 | Relative ratio of antibody titer to alum (compound/alum), secondary screening [2]: 5.14 | virus-specific antibody titers compared with the alum adjuvant [2]: equal to or higher than the alum adjuvant did | Antibody titers in primary screening, Vaccine + compound [3]: 7680.00 | Relative ratio of antibody titer to alum (compound/alum), primary screening [3]: 8.00

CCO [Ethanol]
Mean value of antibody titers, Only compound [2]: <10 | Mean value of antibody titers, Vaccine + compound [2]: 400.00 | Relative ratio of antibody titer to alum (Compound/alum) [2]: 0.56 | Mean value of antibody titers, Vaccine + compound ([4]; Ebola VLP 1 μg/dose + compound, i.m. twice, serum two weeks after second immunization, mean of 4 mice): 140.00 | Antibody titer ratio (a) ([4]; [VLP + candidate compound]/[VLP + AddaVax]): 0.23 | Mean value of antibody titers, Only compound (c) ([4]; compound alone, mice treated as in the influenza adjuvant screening): <10

Cc1cc2nc3c(=O)[nH]c(=O)nc-3n(C[C@H](O)[C@H](O)[C@H](O)CO)c2cc1C [Riboflavin]
Antibody titers (IgG) [1, 5]: 880 | Antibody titers in secondary screening, Vaccine + compound [2]: 2240 | Antibody titers in primary screening, Vaccine + compound [3]: 2560.00

C[C@@H]1O[C@@H](OC[C@H]2O[C@@H](Oc3c(-c4ccc(O)c(O)c4)oc4cc(O)cc(O)c4c3=O)[C@H](O)[C@@H](O)[C@@H]2O)[C@H](O)[C@H](O)[C@H]1O [Rutin hydrate]
Antibody titers (IgG) [1, 5]: 280 | Antibody titers in secondary screening, Vaccine + compound ([2]; hydrate): 720 | Antibody titers in primary screening, Vaccine + compound ([3]; hydrate): 1280.00
